Assays:
Assay type in all cases: in vivo
[1] = test system: bleomycin-induced pulmonary fibrosis; test: Bleomycin-induced pulmonary fibrosis mouse model: wet lung weight; settings: mice, BLM 0.06 U IT; IP daily for 14 days (PTX 10 mg/kg, NAC 20 mg/kg); vs BLM + saline; FIG. 3
Protocol: The composition including pentoxifylline (PTX) and N-acetyl-cysteine (NAC) was assessed in vivo in a mouse model using an experimental design in which a pulmonary fibrosis was generated using bleomycin injury of lung. Bleomycin (BLM) is an effective antineoplastic drug that binds to and damages DNA of tumour cells. However, administration of BLM may result in lung inflammation that can progress to fibrosis. This side effect is due mostly to augmented concentration of reactive oxygen species, decrease in nicotinamide adenine dinucleotide (NAD) and adenosine triphosphate (ATP), and overproduction of mature collagen fibrils. Because BLM-induced lung fibrosis is easily reproduced in different species of mammals, experimental models using the drug have been adopted with the goal of investigating the efficacy of the current invention. […] In this example, the effects of PTX and NAC in combination were studied in comparison to PTX and NAC individually. […] In addition, the lung weights were recorded, photographs of the lungs were taken and tissue samples processed either for biochemical analysis of hydroxyproline (immediately frozen on dry ice) or further morphological analysis (immersed in fixative solution of 10% neutral-buffered formalin).

TNF-α = test: Bleomycin-induced pulmonary fibrosis mouse model: TNF-α in bronchoalveolar lavage fluid by ELISA; settings: mice, day 5 post bleomycin instillation, PTX 10 mg/kg, NAC 20 mg/kg IP daily, FIG. 7
Protocol: Difference of TNF-α at day 5 post bleomycin instillation is shown. Values are means±SD; 5 mice per group. The composition including pentoxifylline (PTX) and N-acetyl-cysteine (NAC) was assessed in vivo in a mouse model using an experimental design in which a pulmonary fibrosis was generated using bleomycin injury of lung. Bleomycin (BLM) is an effective antineoplastic drug that binds to and damages DNA of tumour cells. However, administration of BLM may result in lung inflammation that can progress to fibrosis. This side effect is due mostly to augmented concentration of reactive oxygen species, decrease in nicotinamide adenine dinucleotide (NAD) and adenosine triphosphate (ATP), and overproduction of mature collagen fibrils. Because BLM-induced lung fibrosis is easily reproduced in different species of mammals, experimental models using the drug have been adopted with the goal of investigating the efficacy of the current invention. [table] Mice (under anesthesia) received a single intratracheal dose of either saline (control) or bleomycin (BLM). […] In addition, the lung weights were recorded, photographs of the lungs were taken and tissue samples processed either for biochemical analysis of hydroxyproline (immediately frozen on dry ice) or further morphological analysis (immersed in fixative solution of 10% neutral-buffered formalin). […]

glutathione (GSH) = test: Bleomycin-induced pulmonary fibrosis mouse model: total glutathione in bronchoalveolar lavage fluid; settings: mice, BLM IT; NAC 20 mg/kg IP daily; FIG. 8
Protocol: FIG. 8 illustrates total glutathione levels in bronchoalveolar lavage fluid (BALF) in different experimental groups, as indicated. Data are representative of 4 independent experiments, and presented as mean±SD (n=5). The composition including pentoxifylline (PTX) and N-acetyl-cysteine (NAC) was assessed in vivo in a mouse model using an experimental design in which a pulmonary fibrosis was generated using bleomycin injury of lung. Bleomycin (BLM) is an effective antineoplastic drug that binds to and damages DNA of tumour cells. However, administration of BLM may result in lung inflammation that can progress to fibrosis. This side effect is due mostly to augmented concentration of reactive oxygen species, decrease in nicotinamide adenine dinucleotide (NAD) and adenosine triphosphate (ATP), and overproduction of mature collagen fibrils. Because BLM-induced lung fibrosis is easily reproduced in different species of mammals, experimental models using the drug have been adopted with the goal of investigating the efficacy of the current invention. [table] […] In addition, the lung weights were recorded, photographs of the lungs were taken and tissue samples processed either for biochemical analysis of hydroxyproline (immediately frozen on dry ice) or further morphological analysis (immersed in fixative solution of 10% neutral-buffered formalin). […]

[2] = test system: bleomycin-induced pulmonary fibrosis; test: Bleomycin-induced pulmonary fibrosis mouse model: lung histopathology and semi-quantitative lesion score (Masson trichrome); settings: mice, fourteen days after intratracheal bleomycin; PTX 10 mg/kg and/or NAC 20 mg/kg IP daily; vs untreated BLM animals
Source text: FIG. 4 illustrates representative photomicrographs of lung histopathology. Normal lung histology is shown in panel A (Group I-saline). […] Collagen is stained with Masson trichrome (light blue color). Original ×10 and ×40 magnifications are shown. FIG. 5 illustrates the effect of pentoxifylline and N-acetyl-cysteine on histological lesions scores of the extent and severity of fibrosis in the experimental groups, as indicated. Data are representative of 5 independent experiments, presented as mean±SD (n=4). The composition including pentoxifylline (PTX) and N-acetyl-cysteine (NAC) was assessed in vivo in a mouse model using an experimental design in which a pulmonary fibrosis was generated using bleomycin injury of lung. Bleomycin (BLM) is an effective antineoplastic drug that binds to and damages DNA of tumour cells. However, administration of BLM may result in lung inflammation that can progress to fibrosis. […] In addition, the lung weights were recorded, photographs of the lungs were taken and tissue samples processed either for biochemical analysis of hydroxyproline (immediately frozen on dry ice) or further morphological analysis (immersed in fixative solution of 10% neutral-buffered formalin).

| SMILES | lung weight [1] | BLM-induced increase in TNF-α level in BALF (TNF-α) | total glutathione (GSH) level in BALF (glutathione (GSH)) | anti-fibrotic effect seen in lung histology [2] |
| --- | --- | --- | --- | --- |
| CC(=O)N[C@@H](CS)C(=O)O [NAC, N-acetyl-L-cysteine] | lower lung weights were observed but statistical significance was not reached | significantly decreased | GSH levels can indeed be supplemented | marked anti-fibrotic effect |
| CC(=O)CCCCn1c(=O)c2c(ncn2C)n(C)c1=O [PTX, pentoxifylline] | lower lung weights were observed but statistical significance was not reached | significantly decreased |  |  |

From US9029385B2, “Compositions and methods for treating fibroproliferative disorders” (priority 2007, dated 2015)
